# Assay results published in US9808438B2, “Method for treating mucositis” (ENZYCHEM LIFESCIENCES CORPORATION, priority 2015, dated 2017).
# “And” between values parts separate entries of the source, which are not always exact repeats. Equal values may be shown once.
# Key:
# [1] = tested on: recurrent oral ulceration (ROU); experiment: In vivo effect of PLAG on recurrent oral ulceration in patients, self-reported scoring system; parameters: species or system human
# From the text: Total 44 patients with recurrent oral ulceration (ROU) between 20 and 80 years old (34 female patients and 10 male patients, Disease; RAS ([…]), BD (27 patients), SLE (1 patient), Mean age: 49.3±9.0) were enrolled in the study. The diagnosis of ROU was made based upon the history and the physical examination on oral mucosa by physicians. We included three conditions with recurrent oral ulceration: Recurrent aphthous stomatitis (RAS), Behcet's disease (BD), Systemic lupus erythematosus (SLE). After completing baseline assessments, 250 mg of PLAG was administered to the patients orally twice a day (250 mg PLAG per tablet, 500 mg/day) for 2-4 weeks. The change of recurrent oral ulcer in the patients was evaluated at 2 or 4 weeks after the treatment by using self-reported scoring system (total 12 points), including the following three measurements: change of ulcer frequency (Likert 0-4), Change of ulcer severity: pain & size (Likert 0-4) and Change of ulcer duration (Likert 0-4).
# [2] = tested on: sepsis animal model; conditions: cecal-ligation-puncture sepsis model; cited from earlier work
# [3] = GLP toxicity test; cited from earlier work
# [4] = tested on: hematopoietic stem cells and megakaryocytes; conditions: cited from earlier work
# [5] = 44 patients, relation to PLAG cannot be excluded
# [6] = average of 44 patients, 500 mg/day orally, 2-4 weeks
smiles,measurement,setting,value
"CCCCC/C=C\C/C=C\CCCCCCCC(=O)OC(COC(C)=O)COC(=O)CCCCCCCCCCCCCCC (stereo not shown) [PLAG, 1-palmitoyl-2-linoleoyl-3-acetylglycerol]",side effect of PLAG,"[1]; 44 patients, 500 mg/day orally, 2-4 weeks",any clear side effect of PLAG was not identified
same,patients with mild dyspepsia,[1]; [5],two
same,patients with mild skin rash,[1]; [5],one
same,patients with mild taste change (metallic taste),[1]; [5],one
same,effect on symptoms of oral ulceration,[1]; administration of PLAG to the patients,significantly improves the symptoms of oral ulceration
same,"change of ulcer duration (Likert 0-4), average",[1]; [6],1.86±0.72 and 1.86
same,"change of ulcer frequency (Likert 0-4), average",[1]; [6],2.07±0.55 and 2.07
same,"change of ulcer severity: pain & size (Likert 0-4), average",[1]; [6],2.13±0.68 and 2.14
same,"total (sum of the three scores), average",[1]; [6],5.93±1.76 points and 5.93 points
same,significant improvement,"[1]; individual patient, 1 or 0 from sum of the three scores",1 (considered to be significantly improved when the sum of the three scores was more than 5 points)
same,survivability ratio of animals,[2],increases survivability ratio of animals
same,toxicity,[3],no toxicity
same,growth-stimulating activities,[4],have growth-stimulating activities of hematopoietic stem cells and megakaryocytes
